{"source": "patent US20240398775A1", "about": "“PHARMACEUTICAL COMPOSITION FOR USE IN TREATING COGNITIVE DECLINE OR FOR USE IN TREATING OVERWEIGHT OR OBESITY” (University of the Ryukyus, priority 2021, published 2024)", "key": {"[1]": {"system": "Ca2+ permeable AMPAR (CP-AMPAR)", "experiment": "Ca2+ imaging (Fluo-3) of hippocampal brain slices, AMPA + CTZ application (CP-AMPA reaction)", "assay_type": "cell-based, mouse"}, "[2]": {"system": "NMDA receptor (NMDAR)", "experiment": "Ca2+ imaging (Fluo-3) of hippocampal brain slices, NMDA + glycine application (NMDA reaction)", "assay_type": "cell-based, mouse", "details": "for function of NMDAR in EC, CA1, CA2, CA3 and DG: leptin 100 nM"}, "[3]": {"system": "NL-G-F(−/−) mice", "experiment": "Hippocampus function-dependent fear conditioning test in NL-G-F(−/−) mice", "assay_type": "in vivo, mouse", "details": "perampanel alone 5 mg/kg or 10 mg/kg", "experimental": "Contextual fear conditioning was applied with slight modifications to published protocols (50). Mice were transferred to the animal experimental room and allowed to acclimatize for at least 30 minutes prior to contextual fear conditioning training. Next, the mice were placed in a foot shock system model MK-450 MSQ (Muromachi Kikai Co., Ltd., Japan), searching was performed for 2 minutes, and then 3 electric foot shocks (0.8 mA, 2 sec, 2 min interval) were performed. After mice were left in the apparatus for an additional 1 minute, the animals were removed.\nNL-G-F(−/−) mice, a dementia model, were administered with memantine (mema), exercise, memantine and exercise, memantine and perampanel, and perampanel alone (5 mg/kg or 10 mg/kg), and subjected to behavioral experiments. As the behavior test, a novel object recognition test and a hippocampus function-dependent fear conditioning test were performed. Memantine is an antagonist of the NMDA receptor, but has distinct properties from other NMDA receptor antagonists (refer to Hokama Y., et al., Neuro Oncology, 2022, noac162). That is, memantine is a drug that works only when glutamic acid is excessively present in the brain."}}}
{"compound": "NCCCNCCCCNCCCNC(=O)Cc1cccc2ccccc12", "note": "[NASPM, N-[3-[[4-[(3-aminopropyl)amino]butyl]amino]propyl]-1-naphthaleneacetamide]", "values": [{"measurement": "increase in [Ca2+]i via AMPAR", "setting": "[1]", "value": "completely repressed"}, {"measurement": "increase in [Ca2+]i via pathological AMPARs", "setting": "[1]", "value": "disappeared"}, {"measurement": "inhibitory effect on CP-AMPAR in EC, CA1, CA2, CA3 and DG", "setting": "[1]", "value": "significant inhibitory effect"}]}
{"compound": "Cc1cn2c(n1)Cc1ccc(Cl)cc1C(c1ccc(N)cc1)=N2", "note": "[GYKI 47261]", "values": [{"measurement": "increase in [Ca2+]i via AMPAR", "setting": "[1]", "value": "completely repressed"}, {"measurement": "increase in [Ca2+]i via pathological AMPARs", "setting": "[1]", "value": "disappeared"}, {"measurement": "inhibitory effect on CP-AMPAR in EC, CA1, CA2, CA3 and DG", "setting": "[1]", "value": "significant inhibitory effect"}]}
{"compound": "C[C@H](CCC(=O)O)C[C@H](C)C[C@H](C)C(=O)/C=C(\\O)[C@H](C)C[C@H](C)C/C=C/[C@@H](C)[C@@H](O)[C@@H](C)[C@@H](O)C[C@@H]1CC[C@@](C)([C@H]2CC[C@@](C)([C@@H](C)O)O2)O1", "note": "[ionomycin]", "values": [{"measurement": "NMDA receptor reactivity due to addition of NMDA and glycine", "setting": "[2]; slices of 14 to 16 week old mice on normal diet, 2 mM Ca2+, pretreated with 1 μM ionomycin for 10 min, n=4", "value": "disappeared"}]}
{"compound": "N[C@H](CCCP(=O)(O)O)C(=O)O", "note": "[APV, D-(−)-2-amino-5 phosphonovaleric acid]", "values": [{"measurement": "NMDA receptor reactivity to NMDA and glycine", "setting": "[2]; 2 w HFD slices under calcium ion-free (0 mM Ca) conditions, in the presence of APV", "value": "disappeared"}, {"measurement": "NMDA receptor reactivity to NMDA and glycine", "setting": "[2]; BAPTA-AM-treated 2 w HFD slices, APV 50 μM simultaneously with NMDA and glycine", "value": "abolished"}]}
{"compound": "CC(=O)OCOC(=O)CN(CC(=O)OCOC(C)=O)c1ccccc1OCCOc1ccccc1N(CC(=O)OCOC(C)=O)CC(=O)OCOC(C)=O", "note": "[BAPTA-AM]", "values": [{"measurement": "NMDA receptor reactivity to NMDA (50 μM) and glycine (10 μM)", "setting": "[2]; brain slices of 2 w HFD mice treated 60 min with 3 μM BAPTA-AM, n=3", "value": "restoration of reactivity"}]}
{"compound": "CC12CC3CC(C)(C1)CC(N)(C3)C2", "note": "[memantine]", "values": [{"measurement": "cognitive function in hippocampus function-dependent fear conditioning test", "setting": "[3]", "value": "improvement in cognitive function"}]}
{"compound": "leptin: a hormone that regulates energy expenditure", "values": [{"measurement": "function of NMDAR in EC, CA1, CA2, CA3 and DG", "setting": "[2]; HFD mice orally administered PER", "value": "significantly enhanced"}, {"measurement": "function of NMDAR in EC, CA1, CA2, CA3 and DG", "setting": "[2]; ob/ob mice orally administered PER", "value": "significantly enhanced"}]}
